System: SD rats
Assay: Effect of leptin fragments given intracerebroventricularly on food intake and body weight in SD rats
Type: in vivo
Conditions: single icv injection, measured 24 h later, n = 8, * P < 0.05
Experimental: Effect of Leptin Fragments on Food Intake in SD Rats
Rats are pre-treated with Synulox (0.1 ml/100 g) approx 1 hour before anaesthesia, and then anaesthetised with Domitor (0.04 ml/100 g i.m.) and sublimase (0.9 ml/100 g i.p.) Each rat has a cannula implanted stereotaxically into the lateral brain ventricle under sterile conditions. Anaesthesia is then reversed using Antisedan and Nubain (50% v/v :50% v/v 0.02 m1/100 g) I.P. After surgery each rat receives 0.05 ml Zenecarp.
Experiment 1: Following surgery the body weight of each animal was monitored daily throughout the procedure.
In order to verify that the cannula was in the lateral ventricle, Angiotensin II (100 ng/5 μl ) was injected icv and water intake was monitored for 5 min after injection.
24 hour food intake was measured on day 5 and 6 after surgery. On day 6 the animals were divided according to their body weight into 3 groups (a,b and c, 8 rats per group) and then fasted overnight. On the day of experiment (day 7) rats were injected icv as follows::
group a-vehicle (PBS, phosphate buffer solution, 5 μl/rat);
group b-human leptin (11.5 μg/5 μl); and
group c-leptin tryptic digest (30 μg/5 μl).
A known quantity of food in excess of the daily requirement was supplied to the rats immediately after the icv injection procedure was completed. Food intake and body weight were then measured 24h later.
Experiment 2: A separate group of animals was prepared exactly as described above but on the day of experiment after overnight fast, groups of rats were injected as follows:
group a-vehicle (PBS 5 μl /rat);
group b-human leptin ([…]);
group c-murine leptin (10 μg/5 μl);
group d-ob 57-74, sequence VTGLDFIPGLHPILTLSK (3.33 μg/5 μl);
Again a pre-weight quantity of food, in excess of the daily requirement, was re-given following the injection; change in body weight and the quantity of food consumed were recorded 24h later.

[1] = Experiment 2, Table 2, overnight fast, h-leptin 8.75 μg/rat, m-leptin 10 μg/rat, fragment 57-74 3.33 μg/rat
[2] = Experiment 1, Table 1, overnight fast, h-leptin 11.5 μg/rat, tryptic digest 30 μg/rat

Molecule | 24 h food intake [1] | Bwt Change [1] | 24 h food intake [2] | Bwt Change [2]
VTGLDFIPGLHPILTLSK [Leptin fragment 57-74, fragment of human ob protein, amino acid residues 57 to 74] | 33.6 ± 0.9 g | 26.8 ± 1.2* g/24 h |  | 
h-Leptin: human leptin (human ob protein) | 33.7 ± 1.6 g | 24.5 ± 3.7 g/24 h | 30.62 ± 1.5* g | 22.88 ± 2.05* g/24 h
m-Leptin: murine leptin (protein, UniProt P41160 22-167, looked up) Leptin: VPIQKVQDDTKTLIKTIVTRINDISHTQSVSAKQRVTGLDFIPGLHPILSLSKMDQTLAVYQQVLTSLPSQNVLQIANDLENLRDLLHLLAFSKSCSLPQTSGLQKPESLDGVLEASLYSTEVVALSRLQGSLQDILQQLDVSPEC | 31.3 ± 1.7 g | 23.7 ± 2.18* g/24 h |  | 

— US20030092126A1, “Fragments of leptin (ob protein)” (SmithKline Beecham p.l.c., priority 1996, published 2003)
